Laboratory results as given in patent publication US6852863B2, “Metabolites of (3-{[4-tert-butyl-benzyl)-(pyridine-3-sulfonyl)-amino]-methyl}-phenoxy)-acetic acid” (Pfizer Inc., priority 2002, dated 2005).

Legend:
[1] = Metabolism of 14C-parent in dog liver microsomes; format: in vitro ADME; settings: 20 μM 14C-parent, NADPH, 30 minutes, 37° C.; HPLC radiochromatogram peak
Protocol: Human (HL-mix 12), rat, monkey and dog liver microsomes were prepared by differential centrifugation using standard procedures. Prior to use, liver microsomes were thawed on ice and reconstituted using 100 mM potassium phosphate pH 7.4. [^14C]-(3-{[4-tert-butyl-benzyl)-(pyridine-3-sulfonyl)-amino]-methyl}-phenoxy)-acetic acid was dissolved 100 mM potassium phosphate pH 7.4 at a final substrate concentration of 20 μM. Samples were pre-incubated for 3 min with microsomes (CYP 450; 0.5 μM) at 37° C. in a shaking water bath. Incubations were initiated with the addition of 100 μl cofactor (1.1 mM NADPH, 10 mM MgCl2) per 1 ml of incubation mixture. Incubations were stopped after 30 minutes by the addition of an equal volume of cold acetonitrile.
Metabolite quantification was performed by measuring the areas of individually separated HPLC peaks using the β-RAM (IN/US, Win-flow). […]
(§1) Identification of the metabolites was performed using a Finnigan TSQ 7000 triple quadrupole mass spectrometer equipped with an API-2 electrospray interface. […] The β-RAM response was recorded as a real time analog signal by the MS data collection system. The collected data from the radioactivity and MS detectors were separated by the dwell volume of flow from the MS to the radioactivity detector (corresponding to a dwell time of about 0.2 min.). […]

Human hepatocytes = test: Metabolism of parent in human hepatocytes; format: in vitro ADME; settings: 20 μM parent, 2 million cells per ml, 4 hours, 37° C.; mobile phase pH 5.0
Protocol: Human hepatocytes were generated from a mix of 3 livers. Rat and monkey hepatocytes were generated using Sprague Dawley rats (12 livers), Cynomolgus monkey (1 liver) and Beagle dogs (2 livers). Cryopreserved hepatocytes were suspended in William's E media with 10% FBS to a viable count of 2 million cells per ml and gassed with 95/5 O2/CO2 initially and every hour of incubations. After the addition of 20 μM (3-{[4-tert-butyl-benzyl)-(pyridine-3-sulfonyl)-amino]-methyl}-phenoxy)-acetic acid to a 25 ml Erlenmeyer flask, 2.5 ml of hepatocytes suspension was added and incubated for 4 hours at 37° C. in a shaking water bath.
Metabolite quantification was performed by measuring the areas of individually separated HPLC peaks using the β-RAM (IN/US, Win-flow). The β-RAM provided integrated peak representation printouts in CPM as well as the percentage of the radiolabeled material. The β-RAM was operated using a solid scintillation cell. […]
as §1

CC(C)(CO)c1ccc(CN(Cc2cccc(OCC(=O)O)c2)S(=O)(=O)c2cccnc2)cc1 [Metabolite M4, (3-{[[4-(2-hydroxy-1,1-dimethyl-ethyl)-benzyl]-(pyridine-3-sulfonyl)-amino]-methyl}-phenoxy)-acetic acid]
Percent of Radioactivity, Dog liver microsomes [1]: 11.5% | Percent of Radioactivity, Human hepatocytes (Human hepatocytes): 41.2%
